Results as given in patent publication US12565485B2, “Solid forms of 1-((S)-4-((R)-7-(6-amino-4-methyl-3-(trifluoromethyl)pyridin-2-yl)-6-chloro-8-fluoro-2-(((s)-1-methylpyrrolidin-2-yl)methoxy)quinazolin-4-yl)-3-methylpiperazin-1-yl)prop-2-en-1-one” (Genentech, Inc., priority 2022, dated 2026).

Experiments:
[1] = Form change before and after drying (XRPD); type: physicochemical
Method: The wet sample was vacuum dried at RT for 3 hrs. […] A solid was obtained with a yield of 62.2%. […] (peak temperature). Based on the integrals in NMR spectrum, the stoichiometric ratio of adipic acid:freebase was determined to be 1.06. A peak of EtOAc was observed. Around 0.07 molar EtOAc (0.8 wt %) was detected, which was consistent with TGA weight loss.
(peak), and one small endotherm at 158.8° C. […] Based on the integrals, the stoichiometric ratio of adipic acid:freebase was determined to be 1.65.
(peak temperature). Based on the integrals, the stoichiometric ratio of adipic acid:freebase was determined to be 1.06. Peak of THF was observed. Around 0.17 molar THF (1.9 wt %) was detected, which was consistent with TGA weight loss.
Compound B Form A was obtained from an acetone system and the sample was air dried at RT. […] (peak temperature) before the possible overlapped peak with peak temperature at 156.3° C. (FIG. 12). Based on the integrals, the stoichiometric ratio of fumaric acid:freebase was determined to be 1.03. A peak of acetone was observed and approximately 0.49 molar acetone (4.4 wt %) was detected. The HPLC purity of Compound B Form A was determined to be 93.56 area %. […] Around 0.39 molar acetone (3.5 wt %) was still detected. One endotherm at 58.7° C. and an overlapped peak with peak temperature at 157.1° C. were still observed on the sample obtained after heating. The first endotherm might be caused by re-adsorption of moisture. Since ˜3.5 wt % acetone was still detected from NMR, Compound B Form A is expected to be an acetone/H2O co-solvate.
Compound C Form A was obtained from EtOAc system and the sample was air dried at RT. […] HPLC purity of Compound C Form A was determined to be 95.18 area %.

Solid vapor diffusion = type: physicochemical; conditions: RT; for Result: Compound A
Method: Solid vapor diffusion Compound A. Solid vapor diffusion experiments were conducted using 12 different solvents. […] The 20-mL vial was sealed with a cap and kept at RT allowing solvent vapor to interact with the sample.

Form change before and after drying ([1]; air dried at RT): No form change was observed
Form change before and after drying ([1]; vacuum dried at RT for 3 hrs): No form change was observed
Result (Solid vapor diffusion; 1,4-Dioxane vapor): Compound A Form A
Result (Solid vapor diffusion; ACN vapor): Compound A Form A
Result (Solid vapor diffusion; Acetone vapor): Compound A Form A
Result (Solid vapor diffusion; DCM vapor): Compound A Form A
Result (Solid vapor diffusion; DMF vapor): Compound A Form A
Result (Solid vapor diffusion; DMSO vapor): Compound A Form A
Result (Solid vapor diffusion; EtOAc vapor): Compound A Form A
Result (Solid vapor diffusion; EtOH vapor): Compound A Form A
Result (Solid vapor diffusion; H2O vapor): Compound A Form A
Result (Solid vapor diffusion; IPA vapor): Compound A Form A
Result (Solid vapor diffusion; MeOH vapor): Compound A Form A
Result (Solid vapor diffusion; THF vapor): Compound A Form A
Solid vapor diffusion result (XRPD form) (Solid vapor diffusion; 12 different solvents): Compound A Form A was obtained
SMILES: C=CC(=O)N1CCN(c2nc(OC[C@@H]3CCCN3C)nc3c(F)c(-c4nc(N)cc(C)c4C(F)(F)F)c(Cl)cc23)[C@@H](C)C1 [Compound A Form A]
